Measurements from patent publication US6531610B1 (Abbott Laboratories, priority 1989, dated 2003).
Structures can show the parent of a compound that is named as a salt. Where two headings read alike, the source gives them in different places.

How the values were obtained:
[1] = biological target: HIV-1 protease (Human immunodeficiency virus type 1 group M subtype B, UniProt P04585); test: Fluorogenic assay for screening inhibitors of HIV protease; assay type: biochemical; settings: Inhibitor Concentration 0.5 nanomolar, fluorogenic substrate, pH 4.5, read-out: Percent Inhibition
Protocol: The inhibitory potency of the compounds of the invention can be determined by the following method.
A compound of the invention is dissolved in DMSO and a small aliquot further diluted with DMSO to 100 times the final concentration desired for testing. The reaction is carried out in a 6×50 mm tube in a total volume of 300 microliters. The final concentrations of the components in the reaction buffer are: 125 mM sodium acetate, 1 M sodium chloride, 5 mM dithiothreitol, 0.5 mg/ml bovine serum albumin, 1.3 μM fluorogenic substrate, 2% (v/v) dimethylsulfoxide, pH 4.5. After addition of inhibitor, the reaction mixture is placed in the fluorometer cell holder and incubated at […] for several minutes. The reaction is initiated by the addition of a small aliquot of cold HIV protease. The fluorescence intensity (excitation 340 nm, emission 490 nm) is recorded as a function of time. The reaction rate is determined for the first six to eight minutes. The observed rate is directly proportional to the moles of substrate cleaved per unit time. The percent inhibition is 100×(1-(rate in presence of inhibitor)/(rate in absence of inhibitor)).
Fluorogenic substrate: Dabcyl-[…]EDANS wherein DABCYL=4-(4-dimethylamino-phenyl)azobenzoic acid and EDANS=5-((2-aminoethyl)amino)-naphthalene-1-sulfonic acid.

[2] = tested on: HIV-13B in MT4 cells; test: Antiviral activity: inhibition of the cytopathic effect of HIV in MT4 cells; assay type: cell-based, HIV-1
[3] = in vitro; assay type: cell-based; settings: human
Text: (§1) The anti-HIV activity of the compounds of the invention can be determined in MT4 cells according to the procedure of Kempf, et. al. (Antimicrob. Agents Chemother. 1991, 35, 2209).

[4] = tested on: MT4 cells; test: in vitro; assay type: cell-based; settings: concentration at which 50% of the cells remain viable; MT4 cells; read-out: LC50 (the source's name)
Text: as §1

[5] = Human immunodeficiency virus 1, MT4, read-out: IC50
[6] = concentration giving 50% inhibition of the cytopathic effect of HIV, HIV-13B in MT4 cells, read-out: IC50
[7] = Human immunodeficiency virus 1, MT4
[8] = concentration at which 50% of the cells remain viable, MT4 cells, read-out: LC50 (the source's name)

For `CC(C)c1csc(COC(=O)N[C@H](C(=O)N[C@@H](Cc2ccccc2)C[C@H](O)[C@H](Cc2ccccc2)NC(=O)OCc2cncs2)C(C)C)n1` [Example 21, (2S,3S,5S)-5-(N-(N-((4-Isopropyl-2-thiazolyl)methoxycarbonyl)valinyl)amino)-2-(N-((5-thiazolyl)methoxycarbonyl)amino)-1,6-diphenyl-3-hydroxyhexane], the melting point was 62 to 64 °C.

For `CC(C)c1nc(CN(NC(=O)OC(C)(C)C)C(=O)N[C@H](C(=O)N[C@@H](Cc2ccccc2)C[C@H](O)[C@H](Cc2ccccc2)NC(=O)OCc2cncs2)C(C)C)cs1` [Example 62, (2S,3S,5S)-5-(N-(N-((N-(tert-Butyloxycarbonylamino)-N-((2-isopropyl-4-thiazolyl)methyl)amino)carbonyl)valinyl)amino)-2-(N-((5-thiazolyl)methoxycarbonyl)amino)-1,6-diphenyl-3-hydroxyhexane], the inhibition at 0.0005 µM [1] was 54%, the IC50 [2, 5] was 690 to 1000 nM and the CC50 [3] was 17000 nM.

With `CC(C)c1nc(CC(=O)N[C@H](C(=O)N[C@@H](Cc2ccccc2)C[C@H](O)[C@H](Cc2ccccc2)NC(=O)OCc2cncs2)C(C)C)cs1` [Example 50] the IC50 [2, 6] was 150 to 270 nM and the CC50 [4] was over 100000 nM.

In the case of `CC(C)Cc1nc(CN(C)C(=O)N[C@H](C(=O)N[C@@H](Cc2ccccc2)C[C@H](O)[C@H](Cc2ccccc2)NC(=O)OCc2cncs2)C(C)C)cs1` [Example 59, (2S,3S,5S)-5-(N-(N-((N-Methyl-N-((2-isobutyl-4-thiazolyl)methyl)amino)carbonyl)valinyl)amino)-2-(N-((5-thiazolyl)methoxycarbonyl)amino)-1,6-diphenyl-3-hydroxyhexane], the inhibition at 0.0005 µM [1] is reported as 39%, the IC50 [2, 5] is reported as 110 to 130 nM and the CC50 [3] is reported as 18000 nM.

For `CC(C)c1nc(CN(C)C(=O)N[C@H](C(=O)N[C@@H](Cc2ccccc2)C[C@H](O)[C@H](Cc2ccccc2)NC(=O)OCc2cnc(C(C)C)s2)C(C)C)cs1` [Example 45, (2S,3S,5S)-5-(N-(N-((N-Methyl-N-((2-isopropyl-4-thiazolyl)methyl)amino)carbonyl)valinyl)amino)-2-(N-(((2-isopropyl)-5-thiazolyl)methoxycarbonyl)amino)-1,6-diphenyl-3-hydroxyhexane], the inhibition at 0.0005 µM [1] was 50% and the IC50 [2, 5] was 36 to 40 nM.

With `CC(C)c1nc(CN(N)C(=O)N[C@H](C(=O)N[C@@H](Cc2ccccc2)C[C@H](O)[C@H](Cc2ccccc2)NC(=O)OCc2cncs2)C(C)C)cs1` [Example 63, (2S,3S,5S)-5-(N-(N-((N-(Amino)-N-((2-isopropyl-4-thiazolyl)methyl)amino)carbonyl)valinyl)amino)-2-(N-((5-thiazolyl)methoxycarbonyl)amino)-1,6-diphenyl-3-hydroxyhexane Hydrochloride] the inhibition at 0.0005 µM [1] was 61%, the IC50 [2, 7] was 130 to 180 nM and the CC50 [3, 8] was 45000 nM.

`CC(C)[C@H](NC(=O)N(C)Cc1csc(N2CCCC2)n1)C(=O)N[C@@H](Cc1ccccc1)C[C@H](O)[C@H](Cc1ccccc1)NC(=O)OCc1cncs1` [Example 46, (2S,3S,5S)-5-(N-(N-((N-Methyl-N-((2-(1-pyrrolidinyl)-4-thiazolyl)methyl)amino)carbonyl)valinyl)amino)-2-(N-((5-thiazolyl)methoxycarbonyl)amino)-1,6-diphenyl-3-hydroxyhexane] showed an inhibition at 0.0005 µM [1] of 46% and an IC50 [2, 5] of 100 to 170 nM.

With `CC(C)c1nc(CCOC(=O)N[C@H](C(=O)N[C@@H](Cc2ccccc2)[C@@H](O)C[C@H](Cc2ccccc2)NC(=O)OCc2cncs2)C(C)C)cs1` [Example 48, (2S,3S,5S)-2-(N-(N-((2-(2-Isopropyl-4-thiazolyl)ethoxy)carbonyl)valinyl)amino)-5-(N-((5-thiazolyl)methoxycarbonyl)amino)-1,6-diphenyl-3-hydroxyhexane] the IC50 [2, 5] was 90 to 110 nM and the CC50 [3] was over 100000 nM.

`CC(C)[C@H](NC(=O)N(C)Cc1csc(N2CCCC2)n1)C(=O)N[C@@H](Cc1ccccc1)C[C@H](O)[C@H](Cc1ccccc1)NC(=O)OCc1ccno1` [Example 49, (2S,3S,5S)-5-(N-(N-((N-Methyl-N-((2-(1-pyrrolidinyl)-4-thiazolyl)methyl)amino)carbonyl)valinyl)amino)-2-(N-((5-isoxazolyl)methoxycarbonyl)amino)-1,6-diphenyl-3-hydroxyhexane] gave an IC50 [2, 5] of 81 to 130 nM and a CC50 [3] of 38000 nM.

Work on `CC(C)c1nc(COC(=O)N[C@H](C(=O)N[C@@H](Cc2ccccc2)[C@@H](O)C[C@@H](Cc2cncs2)NC(=O)OCc2cncs2)C(C)C)cs1` [Example 65, (2S,3S,5S)-2-(N-(N-((2-Isopropyl-4-thiazolyl)methoxycarbonyl)valinyl)amino)-1-phenyl-5-(N-((5-thiazolyl)methoxycarbonyl)amino)-6-(5-thiazolyl)-3-hydroxyhexane] yielded an inhibition at 0.0005 µM [1] of 70%, an IC50 [2, 5] of 120 to 200 nM and a CC50 [3] of over 100000 nM.

In the case of `CCN(Cc1csc(C2CCCC2)n1)C(=O)N[C@@H](C)C(=O)N[C@@H](Cc1ccccc1)C[C@H](O)[C@H](Cc1ccccc1)NC(=O)OCc1cncs1` [Example 60], the inhibition at 0.0005 µM [1] is reported as 44%, the IC50 [2, 7] is reported as 340 to 510 nM and the CC50 [3, 8] is reported as 17000 nM.

In the case of `CC(C)[C@H](NC(=O)OCc1csc(N2CCCC2)n1)C(=O)N[C@@H](Cc1ccccc1)C[C@H](O)[C@H](Cc1ccccc1)NC(=O)OCc1cncs1` [Example 13, (2S,3S,5S)-5-(N-(N-((2-(1-Pyrrolidinyl)-4-thiazolyl)methoxycarbonyl)valinyl)amino)-2-(N-((5-thiazolyl)methoxycarbonyl)amino)-1,6-diphenyl-3-hydroxyhexane], the inhibition at 0.0005 µM [1] is reported as 46%, the IC50 [2, 5] is reported as 56 to 88 nM and the CC50 [3] is reported as 56000 nM.

`CC(C)[C@H](NC(=O)N(C)Cc1csc(C2CCCC2)n1)C(=O)N[C@@H](Cc1ccccc1)C[C@H](O)[C@H](Cc1ccccc1)NC(=O)OCc1cncs1` [Example 58, (2S,3S,5S)-5-(N-(N-((N-Methyl-N-((2-cyclopentyl-4-thiazolyl)methyl)amino)carbonyl)valinyl)amino)-2-(N-((5-thiazolyl)methoxycarbonyl)amino)-1,6-diphenyl-3-hydroxyhexane] gave an inhibition at 0.0005 µM [1] of 49%, an IC50 [2, 5] of 30 to 46 nM and a CC50 [3] of 18000 nM.

Work on `CC(C)c1nc(CN(C)C(=O)N[C@H](C(=O)N[C@@H](Cc2ccccc2)C[C@H](O)[C@H](Cc2ccccc2)NC(=O)OCc2cnco2)C(C)C)co1` [Example 19] yielded an IC50 [2, 6] of 22 to 48 nM and a CC50 [4] of 87000 nM.
